Reference: ChEMBL document CHEMBL1125446 (J Med Chem, 1992)
Each block holds one compound with its values, some of them ahead of it. Positions of bridges follow the written chain, without caps; N, C: chain ends. Non-standard residues stand in square brackets, D forms with d. Residues, ends and D or L forms follow the SMILES beside them.

Tests used:
Endothelin-1 receptor [1] = biological target: T1, Endothelin-1 receptor (Sus scrofa, UniProt Q29010); test: Compound was evaluated for the binding affinity towards Endothelin A receptor in porcine aortic membranes; assay type: cell membranes
T1 sequence (Q29010 whole entry): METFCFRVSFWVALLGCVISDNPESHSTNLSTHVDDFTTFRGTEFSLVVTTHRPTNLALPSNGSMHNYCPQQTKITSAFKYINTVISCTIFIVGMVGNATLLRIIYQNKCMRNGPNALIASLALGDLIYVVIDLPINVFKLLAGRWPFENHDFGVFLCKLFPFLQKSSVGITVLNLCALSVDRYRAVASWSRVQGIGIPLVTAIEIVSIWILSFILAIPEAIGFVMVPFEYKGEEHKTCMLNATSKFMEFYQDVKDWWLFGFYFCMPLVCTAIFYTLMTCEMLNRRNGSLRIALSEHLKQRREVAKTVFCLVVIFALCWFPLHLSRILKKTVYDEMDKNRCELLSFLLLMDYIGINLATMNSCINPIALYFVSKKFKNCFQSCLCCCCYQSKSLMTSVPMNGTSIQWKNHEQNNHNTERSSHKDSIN

Endothelin-1 receptor [2] = biological target: T2, Endothelin-1 receptor (Rattus norvegicus, UniProt P26684); test: Compound was evaluated for the binding affinity to Endothelin A receptor in the rat aorta; assay type: tissue-based
T2 sequence (P26684 whole entry): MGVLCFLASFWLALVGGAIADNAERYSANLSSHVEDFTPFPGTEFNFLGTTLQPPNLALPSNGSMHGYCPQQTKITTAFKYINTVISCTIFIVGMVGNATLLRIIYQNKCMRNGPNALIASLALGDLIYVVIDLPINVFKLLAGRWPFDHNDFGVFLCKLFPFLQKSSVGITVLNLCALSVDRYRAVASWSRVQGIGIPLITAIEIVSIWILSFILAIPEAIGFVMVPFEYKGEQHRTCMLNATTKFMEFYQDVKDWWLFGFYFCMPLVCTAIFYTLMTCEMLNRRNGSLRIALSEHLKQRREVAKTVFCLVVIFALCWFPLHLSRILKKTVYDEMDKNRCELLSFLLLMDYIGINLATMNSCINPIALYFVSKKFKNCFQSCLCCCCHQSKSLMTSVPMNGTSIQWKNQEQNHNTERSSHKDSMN

Endothelin-1 receptor [3] = biological target: T2, Endothelin-1 receptor; test: Compound was evaluated for the binding affinity to Endothelin A receptor in the rat atrium; assay type: tissue-based, Cardiac atrium
[4] = biological target: T3, Endothelin receptor type B (Rattus norvegicus, UniProt P21451); test: Compound was evaluated for the binding affinity to Endothelin B receptor in the rat cerebellum; assay type: tissue-based
T3 sequence (P21451 whole entry): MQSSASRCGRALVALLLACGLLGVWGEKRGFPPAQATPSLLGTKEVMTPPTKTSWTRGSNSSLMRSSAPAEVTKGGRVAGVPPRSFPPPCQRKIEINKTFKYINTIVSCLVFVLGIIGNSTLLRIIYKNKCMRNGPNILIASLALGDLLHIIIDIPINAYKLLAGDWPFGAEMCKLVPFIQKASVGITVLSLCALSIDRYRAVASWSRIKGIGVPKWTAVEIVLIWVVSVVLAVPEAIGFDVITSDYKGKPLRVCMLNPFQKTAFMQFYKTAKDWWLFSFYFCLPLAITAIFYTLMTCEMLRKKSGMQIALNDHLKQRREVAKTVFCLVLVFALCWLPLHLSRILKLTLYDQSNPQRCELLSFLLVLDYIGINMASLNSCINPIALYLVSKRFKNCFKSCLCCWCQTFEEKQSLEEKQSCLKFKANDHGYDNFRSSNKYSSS

[5] = biological target: T3, Endothelin receptor type B; test: Compound was evaluated for the binding affinity to Endothelin B receptor in the rat hippocampus; assay type: tissue-based
[6] = biological target: T4, Endothelin receptor, ET-A/ET-B (Homo sapiens, UniProt P24530+P25101); test: Compound was evaluated for the Inhibition of the contractile response of Endothelin A receptor in rabbit thoracic aorta; assay type: functional, tissue-based, Oryctolagus cuniculus; conditions: target entry is the homologue from another species
T4 sequence (P24530 whole entry): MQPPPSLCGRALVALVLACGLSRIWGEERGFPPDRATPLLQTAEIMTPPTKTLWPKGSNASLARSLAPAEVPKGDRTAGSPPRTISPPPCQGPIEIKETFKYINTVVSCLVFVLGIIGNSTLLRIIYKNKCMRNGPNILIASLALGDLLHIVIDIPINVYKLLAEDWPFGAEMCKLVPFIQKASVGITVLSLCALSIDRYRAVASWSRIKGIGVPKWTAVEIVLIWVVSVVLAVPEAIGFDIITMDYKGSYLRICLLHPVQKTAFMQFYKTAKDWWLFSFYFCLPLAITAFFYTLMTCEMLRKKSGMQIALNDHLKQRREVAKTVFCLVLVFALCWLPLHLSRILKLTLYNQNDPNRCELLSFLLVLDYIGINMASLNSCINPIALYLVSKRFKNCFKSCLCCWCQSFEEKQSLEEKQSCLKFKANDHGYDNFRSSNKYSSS
T4 sequence (P25101 whole entry): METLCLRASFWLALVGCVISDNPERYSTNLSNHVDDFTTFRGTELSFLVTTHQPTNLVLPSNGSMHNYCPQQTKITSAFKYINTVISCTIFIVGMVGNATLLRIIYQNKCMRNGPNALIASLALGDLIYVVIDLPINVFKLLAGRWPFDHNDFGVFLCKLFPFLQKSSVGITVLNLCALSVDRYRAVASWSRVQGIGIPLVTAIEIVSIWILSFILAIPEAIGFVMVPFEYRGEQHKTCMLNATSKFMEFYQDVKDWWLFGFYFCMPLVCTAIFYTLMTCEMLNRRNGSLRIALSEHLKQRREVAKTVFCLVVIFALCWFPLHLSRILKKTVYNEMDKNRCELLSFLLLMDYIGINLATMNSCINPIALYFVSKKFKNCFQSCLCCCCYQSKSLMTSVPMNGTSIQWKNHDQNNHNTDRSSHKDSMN

Rattus norvegicus = species: Rattus norvegicus; test: Compound was evaluated for the Inositol phosphate accumulation in rat skin fibroblasts.; assay type: functional
Endothelin-1 receptor [7] = biological target: T1, Endothelin-1 receptor; test: Compound was evaluated for the binding affinity to Endothelin A receptor in the porcine aortic smooth muscle

Compound: CC(C)C[C@H](NC(=O)Cc1ccccc1Cl)C(=O)N(C)[C@H](Cc1c[nH]c2ccccc12)C(=O)N[C@H](CC(C)C)C(=O)O
IC50 (Endothelin-1 receptor [1]): 32000 nM

Compound: CC[C@H](C)[C@H](NC(=O)[C@H](CC(=O)O)NC(=O)[C@H](CC(C)C)NC(=O)[C@H](Cc1c[nH]cn1)NC(=O)[C@@H]1CSSC[C@H](N)C(=O)N[C@@H]([C@@H](C)O)C(=O)N[C@H]2CSSC[C@H](NC(=O)[C@H](CCC(=O)O)NC(=O)[C@H](CCCCN)NC(=O)[C@H](CC(=O)O)NC(=O)[C@H](CCCCN)NC(=O)[C@H](Cc3ccc(O)cc3)NC(=O)[C@H]([C@@H](C)O)NC(=O)[C@H](Cc3ccccc3)NC2=O)C(=O)N[C@@H](C(C)C)C(=O)N[C@@H](Cc2ccc(O)cc2)C(=O)N[C@@H](Cc2ccc(O)cc2)C(=O)N1)C(=O)N[C@H](C(=O)N[C@@H](Cc1c[nH]c2ccccc12)C(=O)O)[C@@H](C)CC [ENDOTHELIN 3]
Ki (Endothelin-1 receptor [2]): 2.5 nM
Ki (Endothelin-1 receptor [3]): 1.6 nM
Ki [4]: 0.021 nM
Ki [5]: 0.036 nM

Compound: CC(C)C[C@H](NC(=O)C1CCCCC1)C(=O)N(C)[C@H](Cc1c[nH]c2ccccc12)C(=O)N[C@H](Cc1ccccn1)C(=O)O.Cl
IC50 [6]: 230000 nM
IC50 (Endothelin-1 receptor [1]): 2300 nM

Compound: CC(C)C[C@H](NC(=O)N1CCCCCC1)C(=O)N(C)[C@H](Cc1c[nH]c2ccccc12)C(=O)N[C@H](Cc1ccccn1)C(=O)N[C@@H](Cc1ccccc1)C(=O)O
IC50 (Endothelin-1 receptor [1]): 21000 nM

Compound: CC[C@H](C)[C@H](NC(=O)[C@@H](NC(=O)[C@H](CC(=O)O)NC(=O)[C@H](CCC(N)=O)NC(=O)[C@H](Cc1cnc[nH]1)NC(=O)[C@@H]1CSSC[C@H](N)C(=O)N[C@@H](CO)C(=O)N[C@H]2CSSC[C@H](NC(=O)[C@H](CCC(=O)O)NC(=O)[C@H](CCCCN)NC(=O)[C@H](CC(=O)O)NC(=O)[C@H]([C@@H](C)O)NC(=O)[C@H](CCSC)NC(=O)[C@H](CC(=O)O)NC(=O)[C@H](CCCCN)NC2=O)C(=O)N[C@@H](CC(C)C)C(=O)N[C@@H](Cc2ccc(O)cc2)C(=O)N[C@@H](Cc2ccccc2)C(=O)N1)C(C)C)C(=O)N[C@@H](Cc1c[nH]c2ccccc12)C(=O)O (H-CSCKDMTDKECLYFCHQDVIW-OH; disulfide 1-15, 3-11)
Ki (Endothelin-1 receptor [2]): 0.24 nM
Ki (Endothelin-1 receptor [3]): 0.087 nM
Ki [4]: 0.013 nM
Ki [5]: 0.012 nM

IC50 (Endothelin-1 receptor [1]): 7600 nM
Compound: CNC(=O)[C@H](Cc1ccccn1)NC(=O)[C@@H](Cc1c[nH]c2ccccc12)N(C)C(=O)[C@@H](CC(=O)N1CCCCCC1)CC(C)C

Compound: CC(C)C[C@H](NC(=O)N1CCCCCC1)C(=O)N(C)[C@H](Cc1c[nH]c2ccccc12)C(=O)N[C@H](Cc1ccccn1)C(=O)O
IC50 (Endothelin-1 receptor [1]): 2500 nM

Compound: H-HLDIIW-OH
IC50 (Rattus norvegicus): < 50000 nM

IC50 (Endothelin-1 receptor [7]): 22000 nM
Compound: CC(C)C[C@@H]1NC(=O)[C@@H](C(C)C)NC(=O)[C@@H]2CCCN2C(=O)[C@@H](CC(=O)O)NC(=O)[C@@H](Cc2c[nH]c3ccccc23)NC1=O [BQ-123] (cyclo(L[dW][dD]P[dV]))

Compound: Ac-HLDIIW-OH
IC50 (Rattus norvegicus): < 50000 nM

Compound: CC[C@H](C)[C@H](NC(=O)[C@@H](NC(=O)[C@H](CC(=O)O)NC(=O)[C@H](CCC(N)=O)NC(=O)[C@H](Cc1cnc[nH]1)NC(=O)[C@@H]1CSSC[C@H](N)C(=O)N[C@@H]([C@@H](C)O)C(=O)N[C@H]2CSSC[C@H](NC(=O)[C@H](CCC(=O)O)NC(=O)[C@H](CCC(=O)O)NC(=O)[C@H](CC(=O)O)NC(=O)[C@H]([C@@H](C)O)NC(=O)[C@H](CCSC)NC(=O)[C@H](CC(=O)O)NC(=O)[C@H](CC(N)=O)NC2=O)C(=O)N[C@@H](CC(C)C)C(=O)N[C@@H](CC(N)=O)C(=O)N[C@@H](Cc2ccccc2)C(=O)N1)C(C)C)C(=O)N[C@@H](Cc1c[nH]c2ccccc12)C(=O)O
Ki (Endothelin-1 receptor [2]): > 5000 nM
Ki (Endothelin-1 receptor [3]): 4200 nM
Ki [4]: 0.016 nM
Ki [5]: 0.023 nM

IC50 (Endothelin-1 receptor [7]): 1400 nM
Compound: CC(C)C[C@@H]1NC(=O)[C@@H](C(C)C)NC(=O)[C@H](C)NC(=O)[C@@H](CCC(=O)O)NC(=O)[C@@H](Cc2c[nH]c3ccccc23)NC1=O (single isomer, unassigned)

Compound: CC[C@H](C)[C@H](NC(=O)[C@H](CC(=O)O)NC(=O)[C@H](CC(C)C)NC(=O)[C@@H](Cc1c[nH]cn1)NC(C)=O)C(=O)N[C@H](C(=O)N[C@@H](Cc1c[nH]c2ccccc12)C(=O)O)[C@@H](C)CC (Ac-[dH]LDIIW-OH)
IC50 (Rattus norvegicus): 1400 nM

Compound: CC[C@@H](C)[C@@H](NC(=O)[C@@H](NC(=O)[C@H](CC(=O)O)NC(=O)[C@H](CC(C)C)NC(=O)[C@H](Cc1c[nH]cn1)NC(C)=O)[C@@H](C)CC)C(=O)N[C@@H](Cc1c[nH]c2ccccc12)C(=O)O (Ac-HLDI[dI]W-OH)
IC50 (Rattus norvegicus): < 50000 nM

Compound: CC(C)C[C@H](NC(=O)N1CCCCCC1)C(=O)N(C)[C@H](Cc1c[nH]c2ccccc12)C(=O)N[C@H](Cc1ccccn1)C(=O)N(C)CC(=O)O
IC50 (Endothelin-1 receptor [1]): 7600 nM
